Where two headings read alike, the source gives them in different places.
Tests used:
[1] = test system: ThyX; conditions: cited from earlier work
[2] = test system: viral pathogens; assay: Evaluation on viral pathogens
[3] = biological target: T1, Mtb ThyX (Mycobacterium tuberculosis, UniProt P9WG57); assay: M. tuberculosis ThyX NADPH oxidase assay; assay type: biochemical; conditions: for Inhibition % (Mtb ThyX) / inhibition at 200 µM: 200 μM compound
[4] = biological target: T1, Mtb ThyX; assay: M. tuberculosis ThyX tritium release assay; assay type: biochemical; conditions: 200 µM compound; for ThyX inhibition, tritium release assay: 200 µM
[5] = in vitro; assay type: cell-based; conditions: human
Procedure: Assays were performed in human peripheral blood mononuclear (PBM) cells via MTS assay using the CellTiter 96® Non-Radioactive Cell Proliferation (Promega) kit. Cytotoxicity was expressed as the concentration of test compounds that inhibited cell growth by 50% (CC50).

[6] = 50 µM inhibitor concentration, read-out: ThyX inhibition at 50 µM of inhibitors
[7] = NADPH oxidase assay, 50 µM FAD, read-out: Inhibition % (Mtb ThyX)
[8] = absence of added FAD, read-out: ThyX inhibition without FAD addition

T1 sequence (P9WG57 whole entry): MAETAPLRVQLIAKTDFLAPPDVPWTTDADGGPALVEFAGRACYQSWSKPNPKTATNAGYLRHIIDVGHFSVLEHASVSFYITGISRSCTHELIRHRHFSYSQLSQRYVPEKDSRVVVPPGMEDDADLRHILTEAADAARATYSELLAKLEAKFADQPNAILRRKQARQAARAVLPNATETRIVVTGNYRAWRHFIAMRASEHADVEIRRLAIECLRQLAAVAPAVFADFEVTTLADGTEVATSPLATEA

SMILES: CCOC(=O)[C@@H]1CSC(c2ccccc2)N1C(=O)c1cn(CCCNC(=O)C(F)(F)F)nn1 (some centres unmarked) [Compound 1]
- IC50 ([1]; read-out: IC50 against ThyX): 57 nM

SMILES: O=C1C(O)=C(c2ccco2)C(=O)c2ccccc21 [Compound 2]
- Ki ([1]; read-out: inhibitory Ki against ThyX): 28 nM

SMILES: CCCCCCCC(=O)NCC#Cc1cn(C2CC(O)C(COP(=O)(O)O)O2)c(=O)[nH]c1=O (centres unmarked) [Compound 3]
- IC50 ([1]; C5-modified dUMP analogs, read-out: IC50): 910 nM

SMILES: O=c1[nH]c2c(nc3ccccn32)c(=O)n1-c1ccc(F)cc1 [Compound 9a, 3-(4-Fluorophenyl)pyrido [1,2-e]purine-2,4(1H,3H)-dione]
- activity on viral pathogens [2]: some promiscuous activity
- toxicity ([2]; evaluation on viral pathogens): without toxicity
- inhibition at 50 µM [3, 6]: 18.4%
- Inhibition % (Mtb ThyX) ([3]; NADPH oxidase assay, 50 µM FAD): 59.4%
- inhibition at 200 µM [3, 7]: 59.5%
- inhibition at 200 µM [3, 8]: 76.1%
- IC50 ([3]; calculated for 9a): 95000 nM
- inhibition at 200 µM [4]: 59.5%

SMILES: O=c1[nH]c2c(nc3ccccn32)c(=O)n1-c1ccc(Cl)cc1 [Compound 9b, 3-(4-Chlorophenyl)pyrido [1,2-e]purine-2,4(1H,3H)-dione]
- inhibition at 50 µM [3, 6]: 2.2%
- inhibition at 200 µM [3, 7]: 49.8%
- inhibition at 200 µM [3, 8]: 12.6%
- inhibition at 200 µM [4]: 77.1%
- ThyX inhibition, tritium release assay [4]: 69.2%

SMILES: Cc1ccc(-n2c(=O)[nH]c3c(nc4ccccn43)c2=O)cc1 [Compound 9d, 3-(p-Tolyl)pyrido [1,2-e]purine-2,4(1H,3H)-dione]
- inhibition at 50 µM [3, 6]: 2.6%
- Inhibition % (Mtb ThyX) ([3]; NADPH oxidase assay, 50 µM FAD): 55.4%
- inhibition at 200 µM [3, 7]: 55%
- inhibition at 200 µM [3, 8]: 20.4%
- inhibition at 200 µM [4]: 69.2%
- ThyX inhibition, tritium release assay [4]: 77.1%

SMILES: O=c1[nH]c2c(nc3ccc(-c4ccccc4)cn32)c(=O)n1-c1ccc(F)cc1 [Compound 23a, 3-(p-Fluorophenyl)-8-phenyl-1H-purino [9,8-a]pyridine-2,4-dione]
- CC50 [5]: > 100000 nM
- inhibition at 200 µM [3, 7]: 84.3%

SMILES: COc1ccc(-c2ccc3nc4c(=O)n(-c5ccc(F)cc5)c(=O)[nH]c4n3c2)cc1 [Compound 23c, 3-(p-Fluorophenyl)-8-(p-methoxyphenyl)-1H-purino [9,8-a]pyridine-2,4-dione]
- inhibition at 200 µM [3, 7]: 35.4%

SMILES: O=c1[nH]c2c(nc3ccc(-c4ccc(OC(F)(F)F)cc4)cn32)c(=O)n1-c1ccc(F)cc1 [Compound 23d, 3-(p-Fluorophenyl)-8-[p-(trifluoromethoxy)phenyl]-1H-purino [9,8-a]pyridine-2,4-dione]
- inhibition at 200 µM [3, 7]: 29.4%

SMILES: O=c1[nH]c2c(nc3ccc(-c4ccc(F)cc4)cn32)c(=O)n1-c1ccc(F)cc1 [Compound 23e, 3,8-Bis(p-Fluorophenyl)-1H-purino [9,8-a]pyridine-2,4-dione]
- inhibition at 200 µM [3, 7]: 43.1%

SMILES: Cc1cc(N2CCN(C(=O)CCN3C(=O)COc4ccccc43)CC2)nc(C(C)C)n1 [Compound B1-PP146, reference compound]
- IC50 ([1]; read-out: IC50 against ThyX): 690 nM
- inhibition at 50 µM ([3]; positive control, value at 50 μM, NADPH oxidase assay, read-out: Inhibition % (Mtb ThyX)): 95.1%

Source: PMC9571937, “Synthesis and Structure–Activity Relationship Studies of Pyrido [1,2-e]Purine-2,4(1H,3H)-Dione Derivatives Targeting Flavin-Dependent Thymidylate Synthase in Mycobacterium tuberculosis” (Molecules, 2022)
